Key:
PDK4 mRNA = assay: Expression of PDK4 mRNA in cultured mouse liver cell line Hepa1-6 (quantitative PCR); assay type: cell-based; details: Hepa1-6 cells, each of the chlorogenic acids (Production Example 4) 5 mM, 24 hours, control at 100
Description: (§1) A cultured mouse liver cell line (Hepa1-6 cell) was cultured in 10% bovine serum-containing Dulbeco's Modified Eagle's Medium (DMEM) at 37° C., 5% CO2. The cells were seeded in a 6-well plate, and when they reached subconfluency, the medium was replaced by a serum free medium (DMEM, -FBS), followed by culturing for further 12 hours. Subsequently, various samples were added (final concentration: chlorogenic acids (Production Example 1) 2.5×10^−4% (w/v) and each of the chlorogenic acids (Production Example 4) 5 mM), and after 24 hours of culturing, total RNA was prepared according to a standard method. After preparing cDNA by reverse transcription reaction, quantitative PCR was performed by ABI PRISM 7000 Sequence Detection System (Applied Biosystems) using Power SYBR Green Master Mix (Applied Biosystems). Also, the expression level of each gene was corrected using the expression level of 36B4 as an internal standard, and represented as a relative expression level by setting the expression level of control at 100.

ACC2 mRNA = assay: Expression of ACC2 mRNA in cultured mouse liver cell line Hepa1-6 (quantitative PCR); assay type: cell-based; details: Hepa1-6 cells, each of the chlorogenic acids (Production Example 4) 5 mM, 24 hours, control at 100
Description: as §1

| SMILES | expression of PDK4 mRNA (PDK4 mRNA) | expression of ACC2 mRNA (ACC2 mRNA) |
| --- | --- | --- |
| O=C(/C=C/c1ccc(O)c(O)c1)O[C@@H]1[C@H](O)C[C@@](O)(C(=O)O)C[C@H]1OC(=O)/C=C/c1ccc(O)c(O)c1 [3,4-dicaffeoylquinic acid] | significantly inhibited | significantly reduced |
| O=C(/C=C/c1ccc(O)c(O)c1)O[C@@H]1CC(O)(C(=O)O)C[C@@H](OC(=O)/C=C/c2ccc(O)c(O)c2)C1O (some centres unmarked) [3,5-dicaffeoylquinic acid] |  | significantly reduced |
| O=C(/C=C/c1ccc(O)c(O)c1)O[C@@H]1C[C@](O)(C(=O)O)C[C@@H](O)[C@H]1O [3-caffeoylquinic acid] | significantly inhibited | significantly reduced |
| O=C(/C=C/c1ccc(O)c(O)c1)O[C@H]1[C@H](O)C[C@](O)(C(=O)O)C[C@H]1OC(=O)/C=C/c1ccc(O)c(O)c1 [4,5-dicaffeoylquinic acid] |  | significantly reduced |
| O=C(/C=C/c1ccc(O)c(O)c1)O[C@H]1[C@H](O)C[C@](O)(C(=O)O)C[C@H]1O [4-caffeoylquinic acid] | significantly inhibited | significantly reduced |

Reference: patent US20120010285A1, “AGENT FOR PROMOTING ENERGY CONSUMPTION” (KAO CORPORATION, priority 2009, published 2012)
